These are literature values, as cited in patent US20210220374A1, “METHODS OF TREATING TE[…]” (Clarus Therapeutics, Inc., priority 2013, published 2021).

The conditions of the series: cited from earlier work.

The structures appear in SMILES notation.

For `C[C@]12CCC(=O)C=C1CC[C@@H]1[C@@H]2CC[C@@]2(C)[C@H]1CC[C@]2(C)O` [methyltestosterone], the Liver toxicity result (oral therapy) is listed as “significant occurrence of liver toxicity”.
For the molecule `C[C@]12CC[C@H]3[C@@H](CCC4=CC(=O)CC[C@@]43C)[C@@H]1CC[C@@H]2O` [testosterone], under “in vivo”, the “Serum half-life of testosterone in men” value is 10 to 100 min.
